Experimental data from PMC6277780, “A Multi-Mode Bioactive Agent Isolated From Ficus microcarpa L. Fill. With Therapeutic Potential for Type 2 Diabetes Mellitus” (Frontiers in Pharmacology, 2018).

What was measured:
DPP-4 = DPP-4 (Homo sapiens, UniProt P27487); assay: DPP-4 inhibition assay (fluorometric, Gly-Pro-AMC); type: biochemical; conditions: pure compound and positive control
Description: DPP-4 inhibition activity was assessed by using fluorometric technique, following the method documented by [Saleem et al., 2014]. This method calculates the quantity of free AMC (7-amino-4-methyl-coumarin). The AMC is released from the Gly-Pro-AMC which is the substrate of DPP-4. Experiment was performed in triplicate. Fluorescence was measured at Em 430 nm following excitation at Ex351 nm using a Tecan safire desktop fluorometer (Reading, England, United Kingdom). 50 mM HEPES buffer was used for preparation of each sample, whose pH was 7.4. To each well we added DPP-4 (20 μl 1 U/ml), test sample (20 μl) and […]. Plates were placed at 37°C for 1 h and then 3 mM acetic acid (100 μl) was pipetted to stop the reaction. We used Berberine (13 mM), as a control for each experiment, as already reported ([Al-Masri et al., 2009]). IC50 for inhibition of DPP-4 was calculated for each sample.

AMPK = AMPK activation potential in primary hepatocytes (western blot); type: cell-based, C57BL/6 mice; conditions: 8 h, PA 20 μM, glucagon 2 μM
Description: To evaluate the AMPK activation potential of PA we performed in vitro analysis. We used primary hepatocytes, derived from C57BL/6 mice (Cell Biologics; Cat. C57-6224F). Hepatocytes were kept in M199 (Corning), supplemented with FBS (fetal bovine serum 10%) and glutagro (1% Corning). Hepatocytes were then serum starved, overnight, and prior to procedure in RPMI 1640 (United States Biological Life Sciences, R8999). 8 h prior to harvest, cells were treated with glucagon (2 μM), or test sample (20 μM). Cells were rinsed with ice cold PBS, twice, after harvest and were placed on ice until the extraction of protein was carried out. Assay was conducted in triplicate with three plates for each treatment. Protein from cells was hauled out; quantified and western blot was performed to assess the activation of AMPK after treatment with PA and compared it with untreated control and the cells treated with glucagon.
Extraction of proteins and western blot analysis was carried out, as we already reported ([Akhtar et al., 2016]). Briefly, lysis buffer was added to the harvested cells. […] Concentration of protein in each lysate was measured using Pierce BCA protein assay kit (Thermo Scientific), as per manufacturer’s protocol. […]

α-glucosidase = α-glucosidase (Saccharomyces cerevisiae, UniProt P53341); assay: α-Glucosidase inhibition assay (pNPG substrate, 405 nm); type: biochemical; conditions: Table 1, unit inferred
α-glucosidase, sequence (P53341 whole entry): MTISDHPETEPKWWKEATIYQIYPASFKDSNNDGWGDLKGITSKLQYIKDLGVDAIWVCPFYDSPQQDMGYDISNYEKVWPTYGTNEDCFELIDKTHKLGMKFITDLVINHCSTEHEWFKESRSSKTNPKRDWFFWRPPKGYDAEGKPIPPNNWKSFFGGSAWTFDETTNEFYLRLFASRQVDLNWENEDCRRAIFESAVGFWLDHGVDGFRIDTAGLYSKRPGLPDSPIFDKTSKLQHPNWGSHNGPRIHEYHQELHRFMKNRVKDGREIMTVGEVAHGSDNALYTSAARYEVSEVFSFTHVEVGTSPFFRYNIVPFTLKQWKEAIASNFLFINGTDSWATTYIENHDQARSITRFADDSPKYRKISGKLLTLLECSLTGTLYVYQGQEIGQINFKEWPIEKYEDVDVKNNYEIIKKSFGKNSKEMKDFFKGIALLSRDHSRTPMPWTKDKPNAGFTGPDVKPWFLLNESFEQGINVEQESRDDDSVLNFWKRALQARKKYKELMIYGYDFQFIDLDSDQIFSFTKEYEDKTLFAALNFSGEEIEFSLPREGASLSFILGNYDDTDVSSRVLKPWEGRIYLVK
Description: α-Glucosidase inhibition activity of the fractions and pure compounds (both PA and FL) was determined using the method of [Li et al. (2005)], while few modifications were made, according to system suitability. […] The decrease in absorption spectrum of reaction mixture indicated the inhibition of α-glucosidase activity of the sample under test. Assays were conducted in triplicate in 96-well microtitre plates. […] Percentage of inhibition was calculate by using following formula.
(1) Inhibitory activity=(OD control−OD test sample)/OD control×100
IC50 was calculated by using table curve ASIN software (2D v4) through linear regression analysis.

DPP-4, sequence (P27487 whole entry, species assumed): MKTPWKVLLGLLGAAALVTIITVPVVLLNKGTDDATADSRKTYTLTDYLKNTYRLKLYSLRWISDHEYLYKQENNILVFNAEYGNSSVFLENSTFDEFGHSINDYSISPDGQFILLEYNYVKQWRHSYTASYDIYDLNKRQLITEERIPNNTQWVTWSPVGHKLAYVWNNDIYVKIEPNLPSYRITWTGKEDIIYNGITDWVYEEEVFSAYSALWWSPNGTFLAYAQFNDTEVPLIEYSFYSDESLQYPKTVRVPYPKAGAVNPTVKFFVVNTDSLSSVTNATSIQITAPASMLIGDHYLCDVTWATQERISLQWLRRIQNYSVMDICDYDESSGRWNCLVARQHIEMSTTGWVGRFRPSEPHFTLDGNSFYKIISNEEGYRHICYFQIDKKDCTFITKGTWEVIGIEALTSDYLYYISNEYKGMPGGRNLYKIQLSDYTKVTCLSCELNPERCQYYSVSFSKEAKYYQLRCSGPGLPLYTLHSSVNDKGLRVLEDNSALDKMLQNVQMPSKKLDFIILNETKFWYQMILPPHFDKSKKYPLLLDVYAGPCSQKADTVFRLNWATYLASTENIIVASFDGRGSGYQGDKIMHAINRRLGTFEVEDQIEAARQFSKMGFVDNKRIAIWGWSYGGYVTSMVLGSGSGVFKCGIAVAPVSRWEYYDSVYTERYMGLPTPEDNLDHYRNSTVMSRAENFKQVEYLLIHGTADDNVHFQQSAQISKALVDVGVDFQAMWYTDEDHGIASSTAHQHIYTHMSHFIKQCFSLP

## COc1ccc2cc3[n+](cc2c1OC)CCc1cc2c(cc1-3)OCO2 [Berberine, reference compound]
DPP-4
  IC50: 27.4 ± 2.2 µM

## glucagon [reference compound]
AMPK
  AMPK activation (phosphorylation of AMPK at Thr172): no AMPK activation
  phosphorylation of ACC to p-ACC at S79: not observed

## 3,4,5,7-Flavantetrol
α-glucosidase
  IC50: 200 µM
